Like-named read-outs stand apart in the source and are kept apart here.
What was measured:
[1] = biological target: insulin receptor β-subunit associated tyrosine kinase activity (Homo sapiens, UniProt P06213); test: Protein tyrosine kinase (PTK) assay, 32P incorporation into FYF peptide; format: biochemical; conditions: for effect of compound alone on 32P incorporation into FYF peptide: basal, absence of insulin; for Ki: read-out: estimated inhibition constant, PTK assay
Procedure: Protein tyrosine kinase activity was determined using a modification of the method of N. Konstantopoulos (22).
The reaction was allowed to proceed for 20 minutes at 30° C. before it was terminated by the addition of 12.5 μL of 7.5 M guanidine hydrochloride. An aliquot (10 μL) of the reaction mixture was then spotted onto a Whatman 81 phosphocellulose paper (15 mm×15 mm), washed three times (2 min per wash) in about 50 mL of 30% acetic acid, 0.05% orthophosphoric acid then finally, with one wash in about 200 mL of water. The papers were then rinsed briefly (15 sec) in 95% ethanol, dried, suspended in 2.5 mL of scintillation fluid (Beckman) and counted for radioactivity in a Beckman β-counter.

insulin receptor [2] = biological target: T1, insulin receptor (Homo sapiens, UniProt P06213); test: 125I insulin binding, insulin receptors from a number of sources; design: host or cells: several: placental membranes, CHO.T11 cells, WGA purified receptors; conditions: range over receptor sources
Procedure: (§1) Tubes were mixed and incubated for 16 h at 4° C. After the incubation, the tubes were placed on ice and 300 μL of a 1:5 suspension of 0.4% bovine-γ-globulin in 20% polyethyleneglycol 6000 (BDH chemicals) was added to each tube, mixed thoroughly and left to incubate for 30 min on ice. The tubes were then centrifuged (3,000 g) for 30 min at 4° C., the supernatant was aspirated off and the pellet counted for radioactivity. […] Inhibition constants were estimated by graphical analysis of displacement plots or calculated using the curve fitting programs EBDA and/or LIGAND.
Target sequence in this assay (P06213 28-758 limits assumed): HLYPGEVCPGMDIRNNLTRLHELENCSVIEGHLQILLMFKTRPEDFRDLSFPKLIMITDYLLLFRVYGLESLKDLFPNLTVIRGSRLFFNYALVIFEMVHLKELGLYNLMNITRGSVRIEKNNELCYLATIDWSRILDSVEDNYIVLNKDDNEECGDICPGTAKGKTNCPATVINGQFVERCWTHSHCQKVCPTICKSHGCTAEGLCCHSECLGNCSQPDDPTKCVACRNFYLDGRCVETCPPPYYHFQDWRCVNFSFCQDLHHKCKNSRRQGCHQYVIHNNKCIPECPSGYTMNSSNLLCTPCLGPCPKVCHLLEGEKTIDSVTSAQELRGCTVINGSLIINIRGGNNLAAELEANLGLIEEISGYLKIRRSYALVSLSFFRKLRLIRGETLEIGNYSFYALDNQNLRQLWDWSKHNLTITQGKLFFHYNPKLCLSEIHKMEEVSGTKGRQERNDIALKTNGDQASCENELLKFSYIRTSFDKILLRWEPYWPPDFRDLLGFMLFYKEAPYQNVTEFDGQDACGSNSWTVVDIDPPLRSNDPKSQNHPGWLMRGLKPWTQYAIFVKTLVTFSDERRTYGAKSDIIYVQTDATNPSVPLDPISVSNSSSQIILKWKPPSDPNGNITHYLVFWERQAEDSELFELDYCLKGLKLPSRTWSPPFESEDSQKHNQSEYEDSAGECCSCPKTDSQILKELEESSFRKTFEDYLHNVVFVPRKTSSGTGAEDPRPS

3T3L1 adipocyte cells = test: Glucose transport (3H-deoxyglucose uptake) in 3T3L1 adipocyte cells; format: cell-based, mouse
Procedure: Glucose transport was determined using a modification of the method of S. J. Isakoff et at. (23). The assay involved measuring the effect of compounds on the uptake of ^3H-deoxyglucose into 3T3L1 adipocyte cells.
The cell line, 3T3-L1, derived from mouse embryo fibroblasts, was grown in 250 mL tissue culture flasks containing 15 mL medium made up of DMEM (Dulbecco's modified Eagle's medium containing glutamine, 2 mM; sodium bicarbonate, 30 mM; penicillin 71.5 mg/litre; streptomycin, 152.5 mg/litre) supplemented with 10% foetal calf serum (FCS), pH 7.4. Cells were maintained in a humidified incubator at 37° C. in a 5% CO2 environment. The medium was changed every 3 days and the cells were split when they were about 70-80% confluent.
3T3-L1 fibroblast cells from one tissue culture flask were suspended in 50 mL of DMEM media containing 10% FCS and 0.5 mL of this suspension were seeded into each well of two 48-well tissue culture plates. The differentiation of the cells was initiated when the fibroblast cells were fully confluent. Routinely, differentiation was induced on cells that had been growing in tissue culture plates for 4-5 days. […] The cells were subsequently maintained with DMEM medium containing 10% FCS.
One day prior to the glucose transport assay, cell medium was replaced with DMEM containing 10% charcoal-treated foetal calf serum (CTFCS). On the day of the assay, the medium was aspirated and each well was washed with 1 mL of 25 mM Hepes, pH 7.4 containing 0.9% NaCl (NaCl-HEPES). […] Ten microlitres of NaCl-HEPES containing 3 mM 2-deoxy-D-glucose and 0.1 μCi 2-deoxy-D-[1-^3H]glucose were then added. Following a 10 min incubation at 37° C., the medium was aspirated off and the wells rapidly washed three times with 1 mL of ice-cold 50 mM phosphate, pH 7.5 containing 150 mM NaCl (PBS) and 10 mM glucose. Two hundred microlitres of 3% Triton X-100 was then added to each well and left to incubate for a minimum of 10 minutes. One hundred microlitres of the solubilised cells was then added to 2.5 mL of liquid scintillation fluid and counted for radioactivity in a Beckman β-counter.

insulin receptor [3] = biological target: T1, insulin receptor; test: 125I insulin binding to CHO.T11 cells; design: expressed in transfected cells
Procedure: as §1
Target sequence in this assay (P06213 28-758 limits assumed): as above

insulin receptor [4] = biological target: T1, insulin receptor; test: 125I insulin binding to wheat germ agglutinin purified insulin receptors (WGA.IR); design: host or cells: several: placental membranes, CHO.T11 cells, WGA purified receptors; conditions: LIGAND 1-site fit
Procedure: as §1
Target sequence in this assay (P06213 28-758 limits assumed): as above

insulin receptor [5] = biological target: T1, insulin receptor; test: Assays of insulin action (several biological assays, classification agonist/antagonist)
Target sequence in this assay (P06213 with tags, fused parts or gaps): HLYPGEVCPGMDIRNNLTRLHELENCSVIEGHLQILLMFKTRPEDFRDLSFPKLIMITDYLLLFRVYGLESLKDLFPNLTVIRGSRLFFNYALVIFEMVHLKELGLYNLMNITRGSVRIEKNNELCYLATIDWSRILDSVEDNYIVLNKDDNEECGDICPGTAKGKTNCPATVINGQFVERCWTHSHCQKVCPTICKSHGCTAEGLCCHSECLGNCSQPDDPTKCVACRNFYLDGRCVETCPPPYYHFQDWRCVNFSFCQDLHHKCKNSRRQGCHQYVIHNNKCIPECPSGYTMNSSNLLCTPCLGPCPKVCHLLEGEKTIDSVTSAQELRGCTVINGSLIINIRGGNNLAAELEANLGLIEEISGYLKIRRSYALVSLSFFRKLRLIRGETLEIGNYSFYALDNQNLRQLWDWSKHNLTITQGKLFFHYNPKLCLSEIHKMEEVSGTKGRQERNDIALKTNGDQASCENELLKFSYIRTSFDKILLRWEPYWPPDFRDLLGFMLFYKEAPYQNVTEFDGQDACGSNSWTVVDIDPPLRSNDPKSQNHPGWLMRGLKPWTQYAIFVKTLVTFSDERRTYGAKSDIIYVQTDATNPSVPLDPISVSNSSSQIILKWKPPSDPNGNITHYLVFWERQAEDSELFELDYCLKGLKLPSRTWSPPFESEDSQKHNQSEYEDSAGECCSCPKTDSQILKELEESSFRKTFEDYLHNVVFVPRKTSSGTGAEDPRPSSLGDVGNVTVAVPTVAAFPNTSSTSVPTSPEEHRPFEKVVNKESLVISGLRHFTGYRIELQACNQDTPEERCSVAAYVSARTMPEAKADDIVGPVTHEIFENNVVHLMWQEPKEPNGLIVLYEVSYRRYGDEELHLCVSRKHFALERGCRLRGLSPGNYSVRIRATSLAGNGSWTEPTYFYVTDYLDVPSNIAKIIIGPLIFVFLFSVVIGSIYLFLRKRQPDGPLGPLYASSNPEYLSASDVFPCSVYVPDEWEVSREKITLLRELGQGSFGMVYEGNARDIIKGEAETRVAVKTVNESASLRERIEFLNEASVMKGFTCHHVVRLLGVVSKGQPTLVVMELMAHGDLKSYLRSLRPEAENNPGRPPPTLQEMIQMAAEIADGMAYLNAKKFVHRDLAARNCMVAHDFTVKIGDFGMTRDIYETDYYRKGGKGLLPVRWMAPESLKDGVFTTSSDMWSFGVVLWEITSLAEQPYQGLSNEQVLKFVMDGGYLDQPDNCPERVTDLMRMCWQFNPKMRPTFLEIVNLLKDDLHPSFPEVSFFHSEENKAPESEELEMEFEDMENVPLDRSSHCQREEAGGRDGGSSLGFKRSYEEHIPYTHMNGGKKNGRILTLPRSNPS

IGF-1 receptor = IGF-1 receptor (Homo sapiens, UniProt P08069); test: 125I IGF-1 binding to human placental plasma membranes (HPPM); design: from tissue; host or cells: human placenta, plasma membranes; conditions: HPPM; read-out: Ki, competition for 125I IGF-1 binding
insulin receptor [6] = biological target: T1, insulin receptor; test: 125I insulin binding to human placental plasma membranes (HPPM); design: Human Placental Plasma Membranes—50 mM Hepes, pH 7.8 @ 4 C containing 100 U/mL Bacitracin; from tissue; host or cells: human placenta, plasma membranes
Procedure: as §1
Target sequence in this assay (P06213 28-758 limits assumed): as the sequence (P06213 28-758 limits assumed) above

[7] = read-out: estimated IC50, 32P incorporation into FYF peptide
[8] = Mus musculus, 3T3-L1; read-out: estimated IC50, glucose transport
[9] = human placental plasma membranes, 16 h at 4° C.
[10] = 3T3L1 cells, 2 nM insulin; read-out: estimated inhibition constant (Ki), glucose transport assay

insulin receptor β-subunit associated tyrosine kinase activity, sequence (P06213 28-758 limits assumed): as above
IGF-1 receptor, sequence (P08069 31-736 limits assumed): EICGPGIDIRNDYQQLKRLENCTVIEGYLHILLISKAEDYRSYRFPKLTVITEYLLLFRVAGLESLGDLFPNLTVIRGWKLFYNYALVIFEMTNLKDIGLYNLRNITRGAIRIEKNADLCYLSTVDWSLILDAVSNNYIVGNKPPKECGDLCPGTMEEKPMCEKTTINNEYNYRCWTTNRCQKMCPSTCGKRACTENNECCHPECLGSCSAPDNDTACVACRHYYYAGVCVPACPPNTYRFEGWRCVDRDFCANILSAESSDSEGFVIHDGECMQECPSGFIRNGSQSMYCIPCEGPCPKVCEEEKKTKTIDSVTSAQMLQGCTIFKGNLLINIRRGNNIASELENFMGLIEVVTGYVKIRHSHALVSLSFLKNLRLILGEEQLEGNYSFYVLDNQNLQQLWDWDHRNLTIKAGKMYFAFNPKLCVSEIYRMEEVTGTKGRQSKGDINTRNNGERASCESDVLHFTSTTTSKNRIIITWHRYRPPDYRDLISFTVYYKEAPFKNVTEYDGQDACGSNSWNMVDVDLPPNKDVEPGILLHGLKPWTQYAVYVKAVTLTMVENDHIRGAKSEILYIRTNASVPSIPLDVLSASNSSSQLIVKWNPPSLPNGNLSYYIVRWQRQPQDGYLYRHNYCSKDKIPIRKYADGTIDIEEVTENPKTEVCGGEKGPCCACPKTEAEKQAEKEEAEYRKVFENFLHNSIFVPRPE

SMILES | Ki (insulin receptor [4]) [µM] | classification of insulin action (insulin receptor [5]) | Ki (insulin receptor [6]; [9]) [µM] | Ki [1] [µM] | Ki (3T3L1 adipocyte cells; [10]) [µM] | effect of compound alone on 32P incorporation into FYF peptide [1] | effect of compound alone on glucose transport (3T3L1 adipocyte cells; basal, no insulin) | also measured
O=C(O)c1cc2ccccc2c(Cc2c(O)c(C(=O)O)cc3ccccc23)c1O [IM 025, 4,4′-Methylenebis[3-hydroxy-2-naphthalenecarboxylic acid]] | 108 ± 32 | antagonists of insulin action | – | – | – | – | – | IC50 [1, 7]: 150 µM; Ki (insulin receptor [2]): 100 to 400 µM; IC50 (3T3L1 adipocyte cells; [8]): 170 µM; Ki (insulin receptor [3]): 137 to 337 µM
CCCc1c(COc2ccc3c(=O)cc(C(=O)O)oc3c2CCC)ccc(C(C)=O)c1O [IM 127, 7-[(4-acetyl-3-hydroxy-2-propylphenyl)methoxy]-4-oxo-8-propyl-4H-1-benzopyran-2-carboxylic acid] | 295 | antagonists of insulin action | 140 to 320 | – | 60 | – | – | –
CCCc1c(OCCCOc2cc(O)c(OCC)cc2CC)ccc2c1OC(C(=O)O)CC2 (stereo not shown) [IM 134, 3,4-dihydro-8-propyl-7-[[3-[2-ethyl-5-hydroxy-4-ethoxyphenoxy]propyl]oxy]-2H-1-benzopyran-2-carboxylic acid] | – | antagonists of insulin action | 900 | 300 to 400 | 60 to 110 | does not increase ^32P incorporation into FYF peptide | does not increase ^32P incorporation into FYF peptide or glucose transport | –
CCCc1c(OCc2ccc3ccccc3n2)ccc2c1OC(C(=O)O)CC2 (stereo not shown) [IM 143, 8-propyl-7-(quinol-2′-ylmethoxy)-3,4-dihydro-2H-1-benzopyran-2-carboxylic acid] | – | antagonists of insulin action | – | – | 40 | – | does not stimulate glucose transport activity | Ki (insulin receptor [6]; human placental plasma membranes): ~2000 µM
CCCN(CCC)c1c([N+](=O)[O-])cc(S(=O)(=O)NS(=O)(=O)C(F)(F)F)cc1[N+](=O)[O-] [IM 145, N-(trifluoromethanesulfonyl)-3,5-dinitro-4-(N′,N′-dipropylamino)benzenesulfonamide] | – | antagonists of insulin action | – | – | – | does not stimulate PTK | does not stimulate PTK or glucose transport activity | IC50 [1]: 90 µM; IC50 (3T3L1 adipocyte cells; Mus musculus, 3T3-L1, read-out: estimated IC50, glucose transport): 60 µM; Ki (insulin receptor [6]): ~1000 µM

The next lines start with results.

Ki (insulin receptor [4]) [µM] | classification of insulin action (insulin receptor [5]) | Ki (insulin receptor [6]; [9]) [µM] | Ki [1] [µM] | SMILES | Ki (3T3L1 adipocyte cells; [10]) [µM] | effect of compound alone on 32P incorporation into FYF peptide [1] | effect of compound alone on glucose transport (3T3L1 adipocyte cells; basal, no insulin) | also measured
– | antagonists of insulin action | – | – | CCCc1c(OCCCOc2cc(O)c(C(C)=O)cc2CC)ccc2c1OC(C(=O)O)CC2 (stereo not shown) [IM 071, 7-[3-(4-acetyl-2-ethyl-5-hydroxyphenoxy)propoxy]-3,4-dihydro-8-propyl-2H-1-benzopyran-2-carboxylic acid] | – | – | – | –
83 | agonists of insulin action | 137 ± 45 | – | O=S(=O)(NS(=O)(=O)C(F)(F)F)c1cc(Cl)cc(Cl)c1OS(=O)(=O)c1cc(Cl)cc(Cl)c1O [IM 103, 2,4-dichloro-6-(N-(trifluoromethanesulfonyl))sulfamoylphenyl 3,5-dichloro-2-hydroxybenzenesulfonate] | – | – | – | Ki (IGF-1 receptor): 59 µM; EC50 (3T3L1 adipocyte cells; Mus musculus, 3T3-L1; compound alone; read-out: apparent EC50, stimulation of glucose transport): 45 ± 7 µM; efficacy compared with insulin, glucose transport (3T3L1 adipocyte cells; compound alone, relative to maximal dose of insulin (100 nM)): about 15%; concentration at apex of bi-phasic dose response curve (3T3L1 adipocyte cells; glucose transport): 110 µM; effect on insulin stimulated glucose transport (3T3L1 adipocyte cells; in presence of insulin (2 nM)): abolishes the insulin stimulation of glucose transport in a dose dependent manner; Ki (insulin receptor [3]): 132 ± 29 µM
– | antagonists of insulin action | – | 360 | CCCc1c(OCCCOc2cc(O)c(-c3cc[nH]n3)cc2CC)ccc2c1OC(C(=O)O)CC2 (stereo not shown) [IM 132, 3,4-dihydro-8-propyl-7-[[3-[2-ethyl-5-hydroxy-4-(1H-pyrazol-3-yl)phenoxy]propyl]oxy]-2H-1-benzopyran-2-carboxylic acid] | 64 | does not increase ^32P incorporation into FYF peptide | does not increase ^32P incorporation into FYF peptide or activate glucose transport | Ki (insulin receptor [2]): 200 to 450 µM; effect on insulin stimulated glucose transport (3T3L1 adipocyte cells; in presence of insulin (2 nM)): significant synergism with insulin
– | antagonists of insulin action | 900 | 130 | CCCc1c(OCc2ccc3ccccc3c2)ccc2c1OC(C(=O)O)CC2 (stereo not shown) [IM 144, 7-(naphth-2′-ylmethoxy)-8-propyl-3,4-dihydro-2H-1-benzopyran-2-carboxylic acid] | 125 | does not increase ^32P incorporation into FYF peptide | does not increase ^32P incorporation into FYF peptide or activate glucose transport | –
– | antagonists of insulin action | 370 | – | CCCc1c(OCCCOc2cc(O)c(-c3ccc(F)cc3)cc2CC)ccc2c1OC(C(=O)O)CC2 (stereo not shown) [IM 171, 8-propyl-7-[3-[4-(4-fluorophenyl)-2-ethyl-5-hydroxyphenoxy]propoxy]-3,4-dihydro-2H-1-benzopyran-2-carboxylic acid] | – | does not increase ^32P incorporation into FYF peptide | does not increase ^32P incorporation into FYF peptide or activate glucose transport | IC50 [1, 7]: 250 µM; IC50 (3T3L1 adipocyte cells; [8]): 80 µM
